Test results: patent US20200330429A1, “METHOD OF TREATING TRUNCAL ACNE WITH TRIFAROTENE” (priority 2019, published 2020)

Key:
moderate truncal acne [1] = assay: SATisFy 52-week study, truncal acne efficacy; assay type: in vivo, human
Method: (§1) A multi-center, 52-week, […] group study (SATisFy) with once daily trifarotene 50 μg/g was conducted in subjects with moderate facial and truncal acne. The screening/baseline weeks were 1, 2, 4, 8, 12, 20, 26, 38 & week 52. Inclusion/exclusion criteria and assessment are as described in Example 1, unless mentioned otherwise. Additional assessments may include subject's facial acne assessment, quality of life (DLQI and CDLQI) and standard facial and trunk photography.
(§2) Efficacy • Success rate: IGA/PGA score of 2 grade in improvement and Clear (0) or Almost Clear (1) • Grade change from baseline of IGA & PGA • Subject's assessment of facial acne improvement.

moderate truncal acne [2] = assay: PERFECT 2, 12-week vehicle-controlled study, truncal acne efficacy; assay type: in vivo, human
Method: (§3) A multi-center (United States, Canada, Europe and Russia), 12-week, double-blinded, and vehicle controlled group study with a 1:1 randomization pattern (once daily trifarotene 50 μg/g or vehicle cream) was conducted in subjects with moderate facial and truncal acne. Enrolled patients or caregivers received instruction about how to apply a thin layer of study drug daily at bedtime on the face and self-reachable trunk. Patients were also instructed to cleanse the skin and not to apply moisturizer one hour before or one hour after study drug application. Use of moisturizer was encouraged from the initiation of treatment. Investigators could reduce the frequency of application to alternate days for a maximum of 2 weeks in the first 4 weeks following the Baseline visit when needed to manage irritation. The patients were selected based on the following criteria.
(§4) Inclusion Criteria: • 1. Male or female patients 9 years or older. • 2. Moderate facial acne, defined as: Investigator Global Assessment (IGA) score of 3 on the face. Minimum of 20 inflammatory lesions and 25 non-inflammatory lesions on the face at Screening and Baseline • 3. […]
(§5) Severity definitions for IGA and PGA scales [5-point scales ranging from 0 (clear) to 4 (severe)] were the same. Lesion counts were performed and IGA and PGA were assessed at Screening, Baseline, and Weeks 1, 2, 4, 8, and 12/ET visits. […]

moderate truncal acne [3] = assay: PERFECT 1, 12-week vehicle-controlled study, truncal acne efficacy; assay type: in vivo, human
Method: as §3, §4, §5

[4] = system: subjects with moderate facial and truncal acne; assay: PERFECT 1 and PERFECT 2, statements for both studies together; assay type: in vivo, human
Method: Enrolled patients or caregivers received instruction about how to apply a thin layer of study drug daily at bedtime on the face and self-reachable trunk. Patients were also instructed to cleanse the skin and not to apply moisturizer one hour before or one hour after study drug application. Use of moisturizer was encouraged from the initiation of treatment. […] The patients were selected based on the following criteria. […] Lesion counts were performed and IGA and PGA were assessed at Screening, Baseline, and Weeks 1, 2, 4, 8, and 12/ET visits. Safety was assessed through adverse events, vital signs and routine laboratory testing. Safety assessments included treatment emergent adverse events (TEAE5), standard laboratory safety tests at screening and last study visit including hematology, blood chemistry, and urinalysis (Barc Central Laboratory, US and Belgium), physical examination, and monitoring of vital signs. Local tolerability signs/symptoms expected with a topical retinoid were collected separately from adverse events to better characterize the tolerability profile of trifarotene cream. […] Subjects were specifically queried at each study visit, including Baseline, for the presence of local signs or symptoms. Signs and/or symptoms of local cutaneous irritation assessed with the tolerability scale were considered to be Adverse Events if they were severe enough to lead to permanent discontinuation of study product treatment or required use of concomitant treatment including over-the-counter products (other than moisturizers). […] Trifarotene or the vehicle were applied once daily in the evening for 12 weeks. The liberal use of a non-comedogenic and hypoallergenic moisturizer and non-comedogenic sunscreen was allowed. Trifarotene or the vehicle were not to be applied to cuts, abrasions, eczematous, or sunburned skin.

moderate facial acne [5] = assay: PERFECT 1, 12-week vehicle-controlled study, facial acne efficacy; assay type: in vivo, human
Method: as §3
Inclusion Criteria: • 1. Male or female patients 9 years or older. • 2. Moderate facial acne, defined as: Investigator Global Assessment (IGA) score of 3 on the face. Minimum of 20 inflammatory lesions and 25 non-inflammatory lesions on the face at Screening and Baseline • 3. Moderate truncal acne with Physician Global Assessment (PGA) score of 3 at Screening and Baseline. Minimum of 20 inflammatory lesions and 20 non-inflammatory lesions but no more than 100 non-inflammatory lesion counts on the trunk (shoulders, upper back and upper anterior chest) reachable to self-application of study drug by the subject at Screening and Baseline (optional criterion for subject between 9 and 11 years of age). • 4. Accessible treated areas of the trunk were defined for the study. The trunk anatomical region assessment was pre-defined by a size-fitted T-shirt (patent # US00D7580485, Jun. 7, 2016). This ensured consistency for study assessment areas throughout the study duration. • 5. […]
as §5

[6] = system: subjects with moderate facial and truncal acne; assay: PERFECT 2 safety: local tolerability and adverse events; assay type: in vivo, human
Method: as §3
(§6) Safety was assessed through adverse events, vital signs and routine laboratory testing. Safety assessments included treatment emergent adverse events (TEAE5), standard laboratory safety tests at screening and last study visit including hematology, blood chemistry, and urinalysis (Barc Central Laboratory, US and Belgium), physical examination, and monitoring of vital signs. Local tolerability signs/symptoms expected with a topical retinoid were collected separately from adverse events to better characterize the tolerability profile of trifarotene cream. These included erythema, scaling, dryness, and stinging/burning scored on a 4-point scale, none=0, mild=1, moderate=2, severe=3. Subjects were specifically queried at each study visit, including Baseline, for the presence of local signs or symptoms. Signs and/or symptoms of local cutaneous irritation assessed with the tolerability scale were considered to be Adverse Events if they were severe enough to lead to permanent discontinuation of study product treatment or required use of concomitant treatment including over-the-counter products (other than moisturizers). Subjects were assessed at screening/baseline and Weeks 1, 2, 4, 8 and 12.
(§7) Trifarotene or the vehicle were applied once daily in the evening for 12 weeks. The liberal use of a non-comedogenic and hypoallergenic moisturizer and non-comedogenic sunscreen was allowed. Trifarotene or the vehicle were not to be applied to cuts, abrasions, eczematous, or sunburned skin.

[7] = hepatic microsomes; cited from earlier work
[8] = system: subjects with moderate facial and truncal acne; assay: PERFECT 1 safety: local tolerability and adverse events; assay type: in vivo, human
Method: as §3, §6, §7

moderate facial acne [9] = assay: PERFECT 2, 12-week vehicle-controlled study, facial acne efficacy; assay type: in vivo, human
Method: as §3
Inclusion Criteria: • 1. Male or female patients 9 years or older. • 2. Moderate facial acne, defined as: Investigator Global Assessment (IGA) score of 3 on the face. Minimum of 20 inflammatory lesions and 25 non-inflammatory lesions on the face at Screening and Baseline • 3. Moderate truncal acne with Physician Global Assessment (PGA) score of 3 at Screening and Baseline. Minimum of 20 inflammatory lesions and 20 non-inflammatory lesions but no more than 100 non-inflammatory lesion counts on the trunk (shoulders, upper back and upper anterior chest) reachable to self-application of study drug by the subject at Screening and Baseline (optional criterion for subject between 9 and 11 years of age). • 4. Accessible treated areas of the trunk were defined for the study. The trunk anatomical region assessment was pre-defined by a size-fitted T-shirt (patent # US00D7580485, Jun. 7, 2016). This ensured consistency for study assessment areas throughout the study duration. • 5. For subjects aged 9 to 11 years, inclusion criteria regarding truncal acne were optional due to relative rarity of trunk involvement (compared with face) in this age group.
Primary Efficacy Endpoints • Success rate, defined as the percentage of subjects who achieved an IGA score on the face of 1 (Almost Clear) or 0 (Clear) and at least a 2-grade improvement from Baseline to Week 12. • Absolute and percent change (supportive efficacy endpoint) in facial inflammatory lesion count from Baseline to Week 12. • Absolute and percent change (supportive efficacy endpoint) in facial non-inflammatory lesion count from Baseline to Week 12.
Severity definitions for IGA and PGA scales [5-point scales ranging from 0 (clear) to 4 (severe)] were the same. Lesion counts were performed and IGA and PGA were assessed at Screening, Baseline, and Weeks 1, 2, 4, 8, and 12/ET visits.
Trifarotene or the vehicle were applied once daily in the evening for 12 weeks. […]

keratinocytes = settings: cited from earlier work
moderate facial acne [10] = assay: SATisFy 52-week study, facial acne efficacy and quality of life; assay type: in vivo, human
Method: as §1, §2

[11] = week 12, trunk population, SATisFy
[12] = week 52, trunk population, SATisFy

CC(C)(C)c1cc(-c2cc(-c3ccc(C(=O)O)cc3)ccc2OCCO)ccc1N1CCCC1 [trifarotene, 3″-tert-Butyl-4′-(2-hydroxy-ethoxy)-4″-pyrrolidin-1-yl-[1,1′,3′,1″]terphenyl-4-carboxylic acid]
overall success rate in same subject for truncal acne (moderate truncal acne [1]; Wk12 (87/396)): 22.0% | overall success rate in same subject for truncal acne (moderate truncal acne [1]; Wk20 (138/375)): 36.8% | overall success rate in same subject for truncal acne (moderate truncal acne [1]; Wk26 (157/363)): 43.3% | overall success rate in same subject for truncal acne (moderate truncal acne [1]; Wk38 (177/355)): 49.9% | overall success rate in same subject for truncal acne (moderate truncal acne [1]; Wk52 (199/344)): 57.9% | PGA success rates (moderate truncal acne [1]; [11]): 38.6% | trunk IGA success rates (moderate truncal acne [1]; [11]): 26.6% | success rates (IGA) (moderate truncal acne [1]; [12]): 65.1% | success rates (PGA) (moderate truncal acne [1]; [12]): 66.9% | statistically significantly superior reductions in inflammatory and non-inflammatory lesions on the trunk, starting by week (moderate truncal acne [2]; PERFECT 2): 2 week | PGA Success (%) (moderate truncal acne [2]; trunk, Week 12, PERFECT 2): 42.6% | statistically significantly superior reductions in inflammatory and non-inflammatory lesions on the trunk, starting by week (moderate truncal acne [3]; PERFECT 1): 4 week | PGA Success (%) (moderate truncal acne [3]; trunk, Week 12, PERFECT 1): 35.7% | changes in vital signs, physical exams and laboratory parameters ([4]; PERFECT 1 and PERFECT 2): no significant clinically relevant changes | serious AEs ([4]; PERFECT 1 and PERFECT 2): no AE was serious | success rates on the trunk statistically significant vs vehicle, starting at week ([4]; both studies): 8 week | facial lesion count reductions, statistical differences vs vehicle apparent as early as week ([4]; face): 1-2 week | statistically significant superior facial IGA success rates vs vehicle, at week (moderate facial acne [5]; PERFECT 1): 4 week | Inflammatory Lesions Mean Absolute Change from baseline (moderate facial acne [5]; face, Week 12, PERFECT 1): −19.0 | IGA Success (%) (moderate facial acne [5]; face, Week 12, PERFECT 1, 50 μg/g once daily): 29.4% | Severe AEs considered related to trifarotene therapy, subjects [6]: 3 subjects | Severe related AE: application site erosion, number [6]: 1 | Severe related AE: application site irritation, number [6]: 1 | Severe related AE: application site pain, number [6]: 1 | metabolism [7]: rapidly metabolized | Severe AEs considered related to trifarotene therapy, subjects [8]: 6 subjects | Severe related AE: dermatitis allergic, number [8]: 1 | Severe related AE: skin irritation, number [8]: 4 | Severe related AE: sunburn, number [8]: 1 | statistically significant superior facial IGA success rates vs vehicle, at week (moderate facial acne [9]; PERFECT 2): 8 week | Inflammatory Lesions Mean Absolute Change from baseline (moderate facial acne [9]; face, Week 12, PERFECT 2): −24.2 | Non-inflammatory Lesions Mean Absolute Change from baseline (moderate facial acne [9]; face, Week 12, PERFECT 2): −30.1 | IGA Success (%) (moderate facial acne [9]; face, Week 12, PERFECT 2, 50 μg/g once daily): 42.3% | metabolic stability (keratinocytes): metabolically stable | success rates, facial acne (moderate facial acne [10]; Wk12 (166/401)): 41.4% | success rates, facial acne (moderate facial acne [10]; Wk26 (201/367)): 54.8% | success rates, facial acne (moderate facial acne [10]; Wk52 (233/350)): 66.6% | subjects who reported that acne had no effect on quality of life (moderate facial acne [10]; week 52 (92/171), 22.6% at Baseline): 53.8%
